Source: patent US12612384B2, “Heterocyclic CYP4A inhibitor compounds and compositions thereof” (MBD CO., LTD., priority 2021, dated 2026)

The molecules below were run against T1, CYP4A (Homo sapiens, UniProt Q02928) (assay: CYP4A enzyme assay (luminescence, Luciferin-ME)). Conditions: Compound concentration 5 μM; 50%-70%; read-out: % Inhibition 50%-70%.
T1 construct: purchased; host or cells: bacterial membranes ('bactosome')
T1 sequence (Q02928 5-519): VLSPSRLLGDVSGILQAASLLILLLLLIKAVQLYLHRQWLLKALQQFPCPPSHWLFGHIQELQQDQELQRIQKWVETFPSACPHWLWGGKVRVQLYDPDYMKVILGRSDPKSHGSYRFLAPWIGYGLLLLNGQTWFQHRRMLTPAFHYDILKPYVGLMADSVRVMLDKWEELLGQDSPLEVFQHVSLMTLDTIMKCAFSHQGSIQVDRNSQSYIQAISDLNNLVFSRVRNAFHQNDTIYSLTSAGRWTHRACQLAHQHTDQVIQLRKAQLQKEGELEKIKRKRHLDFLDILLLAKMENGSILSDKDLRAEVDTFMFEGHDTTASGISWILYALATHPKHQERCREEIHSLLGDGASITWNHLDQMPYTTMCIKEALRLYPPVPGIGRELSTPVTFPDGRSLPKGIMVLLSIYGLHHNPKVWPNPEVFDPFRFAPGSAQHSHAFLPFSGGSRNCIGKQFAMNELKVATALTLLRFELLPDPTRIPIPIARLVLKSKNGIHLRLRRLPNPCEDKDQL
Format: biochemical
Description: The CYP4A inhibitory activity of the above compounds of the examples was measured. The reagents used in the experiment were commercially available, and were prepared and used when necessary. The device used for measuring activity was SpectraMax of MOLECULAR DEVICES.
CYP4A bactosome and the compounds to be evaluated (5 μM) were each diluted in assay buffer (100 mM KPO4, 0.1% BSA, 1 mM DTT) and mixed in a 384 well plate (white opaque polystyrene nontreated flat-bottom well), and reaction was carried out at room temperature for 15 minutes. To induce CYP4A reaction, 5 mM Luciferin-ME, NADPH Regeneration system (10× sol. A, 20× sol. B in assay buffer, Cat. Number: V865B, Promega) were sequentially added and mixed, and the reaction was carried out at room temperature for 30 minutes. Then, Luciferin Detection reagent was added thereto and reacted at room temperature for 15 minutes to stop the CYP4A reaction and induce a luminescence reaction. Finally, after measuring the luminescence value using a microplate reader, the inhibition of CYP4A activity by the compounds was evaluated by comparing the luminescence value from each well.

inhibition at 5 µM	SMILES
50 to 70%	O=C(C1CN(S(=O)(=O)c2ccc(Br)cc2)C1)N1CCN(c2ccnc3cc(F)ccc23)CC1 [Example 68, (1-((4-bromophenyl)sulfonyl)azetidin-3-yl)(4-(7-fluoroquinolin-4-yl)piperazin-1-yl)methanone]

Same assay, conditions: Compound concentration 5 μM; 70%-90%; read-out: % Inhibition 70%-90%

inhibition at 5 µM	SMILES
70 to 90%	O=C(C1CCN(S(=O)(=O)c2ccc(Br)cc2)CC1)N1CCN(c2ccnc3ccccc23)CC1 [Example 63, (1-((4-bromophenyl)sulfonyl)piperidin-4-yl)(4-(quinolin-4-yl)piperazin-1-yl)methanone]

Same assay, conditions: Compound concentration 5 μM; Greater than 90%; read-out: % Inhibition Greater than 90%

inhibition at 5 µM	SMILES
> 90%	O=C(C1CCN(S(=O)(=O)c2ccc(-c3cccnc3)cc2)CC1)N1CCN(c2ccnc3cc(F)ccc23)CC1 [Example 58, (4-(7-fluoroquinolin-4-yl)piperazin-1-yl)(1-((4-(pyridin-3-yl)phenyl)sulfonyl)piperidin-4-yl)methanone]
> 90%	O=C(C1CCCN(S(=O)(=O)c2ccc(Cl)nc2)C1)N1CCN(c2ccnc3cc(F)ccc23)CC1 (stereo not shown) [Example 59, (1-((6-chloropyridin-3-yl)sulfonyl)piperidin-3-yl)(4-(7-fluoroquinolin-4-yl)piperazin-1-yl)methanone]
> 90%	CN1CCN(c2ccc(S(=O)(=O)N3CCCC(C(=O)N4CCN(c5ccnc6cc(F)ccc56)CC4)C3)cn2)CC1 (stereo not shown) [Example 62, (4-(7-fluoroquinolin-4-yl)piperazin-1-yl)(1-((6-(4-methylpiperazin-1-yl)pyridin-3-yl)sulfonyl)piperidin-3-yl)methanone]
> 90%	O=C(C1CN(S(=O)(=O)c2ccc(O)cc2)C1)N1CCN(c2ccnc3cc(F)ccc23)CC1 [Example 66, (4-(7-fluoroquinolin-4-yl)piperazin-1-yl)(1-((4-hydroxyphenyl)sulfonyl)azetidin-3-yl)methanone]
> 90%	O=C(C1CN(S(=O)(=O)c2ccc([N+](=O)[O-])cc2)C1)N1CCN(c2ccnc3cc(F)ccc23)CC1 [Example 67, (4-(7-fluoroquinolin-4-yl)piperazin-1-yl)(1-((4-nitrophenyl)sulfonyl)azetidin-3-yl)methanone]
> 90%	CC(=O)Nc1ccc(S(=O)(=O)N2CC(C(=O)N3CCN(c4ccnc5ccccc45)CC3)C2)cc1 [Example 70, N-(4-((3-(4-(quinolin-4-yl)piperazine-1-carbonyl)azetidin-1-yl)sulfonyl)phenyl)acetamide]

The next lines start with the molecule.

SMILES	inhibition at 5 µM
CC(=O)Nc1ccc(S(=O)(=O)N2CCCC(C(=O)N3CCN(c4ccnc5cc(F)ccc45)CC3)C2)cn1 (stereo not shown) [Example 60, N-(5-((3-(4-(7-fluoroquinolin-4-yl)piperazine-1-carbonyl)piperidin-1-yl)sulfonyl)pyridin-2-yl)acetamide]	> 90%
O=C(C1CCCN(S(=O)(=O)c2ccc(N3CCOCC3)nc2)C1)N1CCN(c2ccnc3cc(F)ccc23)CC1 (stereo not shown) [Example 61, (4-(7-fluoroquinolin-4-yl)piperazin-1-yl)(1-((6-morpholinopyridin-3-yl)sulfonyl)piperidin-3-yl)methanone]	> 90%
O=C(C1CCN(S(=O)(=O)c2ccc(-c3ccncc3)cc2)CC1)N1CCN(c2ccnc3ccccc23)CC1 [Example 64, (1-((4-(pyridin-4-yl)phenyl)sulfonyl)piperidin-4-yl)(4-(quinolin-4-yl)piperazin-1-yl)methanone]	> 90%
CC(=O)Nc1ccc(S(=O)(=O)N2CC(C(=O)N3CCN(c4ccnc5cc(F)ccc45)CC3)C2)cc1 [Example 65, N-(4-((3-(4-(7-fluoroquinolin-4-yl)piperazine-1-carbonyl)azetidin-1-yl)sulfonyl)phenyl)acetamide]	> 90%
O=C(C1CN(S(=O)(=O)c2ccc(-c3ccncc3)cc2)C1)N1CCN(c2ccnc3cc(F)ccc23)CC1 [Example 69, (4-(7-fluoroquinolin-4-yl)piperazin-1-yl)(1-((4-(pyridin-4-yl)phenyl)sulfonyl)azetidin-3-yl)methanone]	> 90%
